This is an account of results in patent US20110201603A1, “Novel Acylaminobenzamide Derivatives” (Bayer CropScience AG, priority 2008, published 2011).

Common to all, as to assay type: in vivo
The test system of data set [1] is mustard beetle larvae (Phaedon cochleariae). In words: Phaedon cochleariae test (PHAECO spray application). Conditions: application rate of 500 g/ha; Chinese cabbage leaf-disks; after 7 days. As to the method: Solvent: 78.0 parts by weight of acetone and 1.5 parts by weight of dimethylformamide
Emulsifier: 0.5 parts by weight of alkylaryl polyglycolether
To produce a suitable preparation of active compound, 1 part by weight of active compound is mixed with the stated amount of solvent and emulsifier, and the concentrate is diluted with emulsifier-containing water to the desired concentration. Chinese cabbage (Brassica pekinesis) leaf-disks are sprayed with a preparation of the active ingredient of the desired concentration. Once dry, the leaf disks are infested with mustard beetle larvae (Phaedon cochleariae). After 7 days mortality in % is determined. 100% means that all beetle larvae have been killed and 0% means that none of the beetle larvae have been killed.

The subject of the next data set is Lucilia cuprina larvae. The experiment in a line: Lucilia cuprina test. Conditions: application rate of 100 ppm; larvae on minced horse meat; after 2 days. As to the method:
(§1) Solvent: dimethyl sulfoxide
To produce a suitable preparation of active compound, 10 mg of active compound are dissolved in 0.5 ml solvent, and the concentrate is diluted with water to the desired concentration. Approximately 20-30 (Lucilia cuprina larvae) are transferred into a test tube containing 1 cm^3 of minced horse meat and 0.5 ml aqueous dilution of test compound. After 2 days mortality in % is determined. 100% means that all the larvae have been killed; 0% means that none of the larvae have been killed.

Data set [2] relates to tobacco cutworm (Spodoptera litura) larvae. In words: Test against tobacco cutworm (Spodoptera litura) larvae, leaf dip. Particulars: active compound concentration of 100 ppm; third-instar larvae on sweet potato leaves; after 7 days. Summed up: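 Sweet potato leaves dipped in compound diluted in water (DMF solvent, polyoxyethylene alkyl phenyl ether emulsifier), air-dried, and given to ten third-instar larvae per dish at 25 °C, with fresh leaves on days 2 and 4. Mortality (%) scored after 7 days, averaged over two dishes.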

Data set [3] has as its system two-spotted spider mite (Tetranychus urticae). In words: Test against two-spotted spider mite (Tetranychus urticae), spray. Conditions: concentration of 100 ppm; adult mites on kidney beans; after 7 days. As to the method: Unless not mentioned otherwise, the test solutions were prepared as follows:
Containing as solvent: Dimethylformamide, 3 parts by weight; and as emulsifier: Polyoxyethylene alkyl phenyl ether, 1 part by weight
To prepare the test solution, 1 part by weight of an active compound is mixed with the above-mentioned amount of solvent containing the above-mentioned amount of emulsifier, and the mixture is diluted with water to the desired concentration.
50 to 100 adult two-spotted spider mites were inoculated onto the leaves of kidney beans at the two-true leaf stage, which plant had been cultivated in a pot having a diameter of 6 cm. After one day, test solution at the appropriate concentration was sprayed thereon in a sufficient amount using a spray gun. After the spraying, the plant pot was placed inside a greenhouse, and after 7 days, the acaricidal activity was calculated. An acaricidal activity of 100% means that all mites were killed, whereas an acaricidal activity of 0% means that no mite was killed.

Data set [4] relates to cucurbit leaf beetle (Aulacophora femoralis). The experiment in a line: Test against cucurbit leaf beetle (Aulacophora femoralis), leaf dip. Particulars: active compound concentration of 100 ppm; second-instar larvae on cucumber leaves; after 7 days. Summed up:
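Cucumber leaves dipped in compound solution (DMF solvent, polyoxyethylene alkyl phenyl ether emulsifier, water-diluted), air-dried, offered to five second-instar larvae on soil at 25° C. Mortality counted after 7 days, expressed as percent insecticidal activity.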

The test system of a further data set is Ctenocephalides felis. In words: Ctenocephalides felis test (CTECFE), blood feeding. Particulars: application rate of 100 ppm in cattle blood; adult unfed fleas; after 2 days. As to the method:
as §1
To produce a suitable preparation of active compound, 10 mg of active compound are dissolved in 0.5 ml solvent, and the concentrate is diluted with cattle blood to the desired concentration.
Approximately 10 to 15 adult unfed (Ctenocepahlides felis) are placed in flea chambers. The blood chamber, are sealed with paraffin on the bottom are filled with cattle blood supplied with compound solution and placed on top of the flea chamber, so that the fleas are able to suck the blood. The blood chamber is heated to 37° C. whereas the flea chamber is kept at room temperature. After 2 days mortality in % is determined. 100% means that all the fleas have been killed; 0% means that none of the fleas have been killed.

Another data set deals with Musca domestica. In words: Musca domestica test. Conditions: application rate of 100 ppm; adults, sugar sponge; after 2 days. As to the method: as §1
To produce a suitable preparation of active compound, 10 mg of active compound are dissolved in 0.5 ml solvent, and the concentrate is diluted with water to the desired concentration. Prior to the assay, a piece or kitchen sponge is soaked with a mixture of sugar and compound solution and placed into a container. 10 adults (Musca domestica) are placed into the container and closed with a perforated lid. After 2 days mortality in % is determined. 100% means that all the flies have been killed; 0% means that none of the flies have been killed.

The next data set deals with Boophilus microplus. The experiment in a line: Boophilus microplus test (injection). Conditions: application rate of 20 μg/animal; injection into adult engorged female ticks; after 7 days. The procedure:
as §1
To produce a suitable preparation of active compound, 10 mg of active compound are dissolved in 0.5 ml solvent, and the concentrate is diluted with solvent to the desired concentration. Five adult engorged female ticks (Boophilus microplus) are injected with compound solution into the abdomen. Ticks are transferred into replica plates and incubated in a climate chamber for a period of time. Egg deposition of fertile eggs is monitored. After 7 days mortality in % is determined. 100% means that all eggs are infertile; 0% means that all eggs are fertile.

Regarding `Cc1cc(C(n2nc(C)c(Br)c2C)C(F)(F)F)cc(C)c1NC(=O)c1cccc([N+](=O)[O-])c1` (racemic) [11-143], the “activity (mortality in %)” value in data set [1] worked out at 100%.

Consider `Cc1cc(C(n2cc(Cl)c(C(F)(F)C(F)(F)F)n2)(C(F)(F)F)C(F)(F)F)cc(C)c1NC(=O)c1cccc(NC(=O)c2cccnc2Cl)c1` [2-120], for which, in the data set with Lucilia cuprina larvae, the “activity (mortality in %)” value is given as 90%. The same compound came in with an insecticidal activity in data set [2] of 100%.

In turn, `CCOC(c1cc(I)c(NC(=O)c2cccc(NC(=O)c3ccc(Cl)nc3)c2)c(I)c1)(C(F)(F)F)C(F)(F)F` [1-60] returned an acaricidal activity rate in data set [3] of 100%. Moreover, the insecticidal activity in data set [4] and in data set [2] was 100% throughout. The “activity (mortality in %)” value with Ctenocephalides felis and in the data set on Musca domestica was 100% throughout.

For `Cc1cc(C(n2nc(C(F)(F)F)cc2C(F)(F)F)(C(F)(F)F)C(F)(F)F)cc(C)c1NC(=O)c1cccc(NC(=O)c2ccccc2F)c1` [2-124], the “activity (mortality in %)” value in the data set on Lucilia cuprina larvae is recorded as 90%. Besides, the insecticidal activity in data set [2] is reported as 100%.

Consider `Cc1cc(C(n2cc(C(F)(F)F)cn2)C(F)(F)C(F)(F)F)cc(C)c1NC(=O)c1cccc(NC(=O)c2cccnc2Cl)c1` (stereo not drawn) [2-104], for which the “activity (mortality in %)” value with Lucilia cuprina larvae was 90%; in the data set with Ctenocephalides felis, 100%; in the data set with Musca domestica it was 80%. In addition, the insecticidal activity in data set [4] and in data set [2] was 100% in each case.

As for `CCOC(c1cc(I)c(NC(=O)c2cccc(NC(=O)c3cccc(F)c3)c2)c(I)c1)(C(F)(F)F)C(F)(F)F` [1-27], the acaricidal activity rate in data set [3] is given as 100%. Besides, the insecticidal activity in data set [4] and in data set [2] was 100% throughout. Also, the results for the “activity (mortality in %)” value in the data set with Ctenocephalides felis and in the data set on Musca domestica were 90% and 80%, respectively.

Turning to `CCc1cc(C(n2cc(C(F)(F)F)cn2)(C(F)(F)F)C(F)(F)F)cc(C)c1NC(=O)c1cccc(N)c1` [11-114], the “activity (mortality in %; 100% means all eggs are infertile)” value with Boophilus microplus stood at 80%.
